Measurements: US20260232812A1, “BIFUNCTIONAL MOLECULES FOR TARGETED PROTEIN DEGRADATION” (Amphista Therapeutics Limited, priority 2022, published 2026)

Target: T1, BRD4 (Homo sapiens, UniProt O60885)
T1 construct: HEK293 containing a HiBit insertion for BRD4; endogenous in cells; host or cells: HEK293 with a HiBiT insertion for BRD4
Assay: Assay 1 - Degradation of HiBit-BRD4 in HEK293
Format: cell-based
Conditions: HiBit-BRD4 in HEK293, 6 h treatment
Experimental: 1.1 Assay 1-Degradation of HiBit-BRD4 in HEK293
HEK293 containing a HiBit insertion for BRD4 were plated in 384-well tissue culture plates at a density of 8×10^4 per well in a volume of 36 μL and incubated overnight at 37° C. and 5% CO2. Wells were treated with test compounds for 6 h prior to addition of the NanoLuc substrate and reading on a […]. Degradation data was plotted and analysed using […] (Graphpad).

Structure (SMILES) | DC50 | Dmax
CC(=O)N1c2ccc(-c3ccc(C(=O)NCCOCCOCCOCCOCCOCCNC(=O)[C@@H]4CN(C(=O)/C(C#N)=C/c5nccs5)C[C@H]4CC(C)C)cc3)cc2[C@H](Nc2ccc(Cl)cc2)C[C@@H]1C [Example 15k] | 25 to 200 nM | ≥ 70%
CC(=O)N1c2ccc(-c3ccc(C(=O)NCCOCCOCCOCCOCCOCCNC(=O)[C@@H]4CN(C(=O)/C(C#N)=C/c5nccs5)C[C@H]4c4ccc(F)cc4)cc3)cc2[C@H](Nc2ccc(Cl)cc2)C[C@@H]1C [Example 15ae] | 25 to 200 nM | ≥ 70%
CC(=O)N1c2ccc(-c3ccc(C(=O)NCCOCCOCCOCCOCCOCCNC(=O)C4CC(C5CC5)CN(C(=O)/C(C#N)=C/c5nccs5)C4)cc3)cc2[C@H](Nc2ccc(Cl)cc2)C[C@@H]1C (stereo partly drawn) [Example 13u] | < 25 nM | ≥ 70%
COc1ccc([C@@H]2CN(C(=O)/C(C#N)=C/c3ccn(C)n3)C[C@H]2C(=O)NCCOCCOCCOCCOCCOCCNC(=O)c2ccc(-c3ccc4c(c3)[C@H](Nc3ccc(Cl)cc3)C[C@H](C)N4C(C)=O)cc2)cc1 [Example 15ab] | 25 to 200 nM | 50 to 70%
CC(=O)N1c2ccc(-c3ccc(C(=O)NCCOCCOCCOCCOCCOCCNC(=O)[C@@H]4CN(C(=O)/C(C#N)=C/C(C)(C)CN5CCOCC5)C[C@H]4CC(C)C)cc3)cc2[C@H](Nc2ccc(Cl)cc2)C[C@@H]1C [Example 15o] | 25 to 200 nM | 50 to 70%
CC(=O)N1c2ccc(-c3ccc(C(=O)NCCOCCOCCOCCOCCOCCNC(=O)C4CC(C(C)C)CN(C(=O)/C(C#N)=C/c5nccs5)C4)cc3)cc2[C@H](Nc2ccc(Cl)cc2)C[C@@H]1C (stereo partly drawn) [Example 13k] | < 25 nM | ≥ 70%
CC(=O)N1c2ccc(-c3ccc(C(=O)NCCOCCOCCOCCOCCOCCNC(=O)C4CC(c5ccccc5)CN(C(=O)/C(C#N)=C/C(C)(C)C)C4)cc3)cc2[C@H](Nc2ccc(Cl)cc2)C[C@@H]1C (stereo partly drawn) [Example 13aa] | > 200 nM | ≥ 70%
CC(=O)N1c2ccc(-c3ccc(C(=O)NCCOCCOCCOCCOCCOCCNC(=O)C4CCCN(C(=O)/C(C#N)=C/C(C)(C)CN5CCOCC5)C4)cc3)cc2[C@H](Nc2ccc(Cl)cc2)C[C@@H]1C (stereo partly drawn) [Example 13e] | > 200 nM | 30 to 50%
CC(=O)N1c2ccc(-c3ccc(C(=O)NCCOCCOCCOCCOCCOCCNC(=O)[C@@H]4CN(C(=O)/C(C#N)=C/C(C)(C)C)C[C@H]4c4cccc(C)c4)cc3)cc2[C@H](Nc2ccc(Cl)cc2)C[C@@H]1C [Example 15ak, N-(1-(4-((2S,4R)-1-acetyl-4-((4-chlorophenyl)amino)-2-methyl-1,2,3,4-tetrahydroquinolin-6-yl)phenyl)-1-oxo-5,8,11,14,17-pentaoxa-2-azanonadecan-19-yl)-1-((E)-2-cyano-4,4-dimethylpent-2-enoyl)-4-(m-tolyl)pyrrolidine-3-carboxamide] | 25 to 200 nM | ≥ 70%
CC(=O)N1c2ccc(-c3ccc(C(=O)NCCOCCOCCOCCOCCOCCNC(=O)[C@@H]4CN(C(=O)/C(C#N)=C/c5ccn(C)n5)C[C@H]4CC(C)C)cc3)cc2[C@H](Nc2ccc(Cl)cc2)C[C@@H]1C [Example 15m] | 25 to 200 nM | 50 to 70%
CC(=O)N1c2ccc(-c3ccc(C(=O)NCCOCCOCCOCCOCCOCCNC(=O)[C@@H]4CN(C(=O)/C(C#N)=C/c5nccs5)C[C@H]4C(C)C)cc3)cc2[C@H](Nc2ccc(Cl)cc2)C[C@@H]1C [Example 15f] | > 200 nM | 30 to 50%
CC(=O)N1c2ccc(-c3ccc(C(=O)NCCOCCOCCOCCOCCOCCNC(=O)[C@@H]4CN(C(=O)/C(C#N)=C/c5ccc(F)cc5)C[C@H]4C4CCCCC4)cc3)cc2[C@H](Nc2ccc(Cl)cc2)C[C@@H]1C [Example 15s] | 25 to 200 nM | 50 to 70%
CC(=O)N1c2ccc(-c3ccc(C(=O)NCCOCCOCCOCCOCCOCCNC(=O)C4CCCN(C(=O)/C(C#N)=C/c5ccc(F)cc5)C4)cc3)cc2[C@H](Nc2ccc(Cl)cc2)C[C@@H]1C (stereo partly drawn) [Example 13d] | > 200 nM | 30 to 50%
CC(=O)N1c2ccc(-c3ccc(C(=O)NCCOCCOCCOCCOCCOCCNC(=O)[C@@H]4CN(C(=O)/C(C#N)=C/C(C)(C)CN5CCOCC5)C[C@H]4C4CCCCC4)cc3)cc2[C@H](Nc2ccc(Cl)cc2)C[C@@H]1C [Example 15t] | 25 to 200 nM | ≥ 70%
CC(=O)N1c2ccc(-c3ccc(C(=O)NCCOCCOCCOCCOCCOCCNC(=O)C4CC(C(C)C)CN(C(=O)/C(C#N)=C/C(C)(C)C)C4)cc3)cc2[C@H](Nc2ccc(Cl)cc2)C[C@@H]1C (stereo partly drawn) [Example 13l] | > 200 nM | 30 to 50%
COc1ccc(C2CC(C(=O)NCCOCCOCCOCCOCCOCCNC(=O)c3ccc(-c4ccc5c(c4)[C@H](Nc4ccc(Cl)cc4)C[C@H](C)N5C(C)=O)cc3)CN(C(=O)/C(C#N)=C/C(C)(C)CN3CCOCC3)C2)cc1 (stereo partly drawn) [Example 13ai] | > 200 nM | 30 to 50%
CC(=O)N1c2ccc(-c3ccc(C(=O)NCCOCCOCCOCCOCCOCCNC(=O)C4CC(c5ccc(C(F)(F)F)cc5)CN(C(=O)/C(C#N)=C/C(C)(C)C)C4)cc3)cc2[C@H](Nc2ccc(Cl)cc2)C[C@@H]1C (stereo partly drawn) [Example 13ak] | 25 to 200 nM | ≥ 70%
COc1ccc([C@@H]2CN(C(=O)/C(C#N)=C/c3ccc(F)cc3)C[C@H]2C(=O)NCCOCCOCCOCCOCCOCCNC(=O)c2ccc(-c3ccc4c(c3)[C@H](Nc3ccc(Cl)cc3)C[C@H](C)N4C(C)=O)cc2)cc1 [Example 15ac] | > 200 nM | < 50%
CC(=O)N1c2ccc(-c3ccc(C(=O)NCCOCCOCCOCCOCCOCCNC(=O)[C@@H]4CN(C(=O)/C(C#N)=C/C(C)(C)C)C[C@H]4C(C)C)cc3)cc2[C@H](Nc2ccc(Cl)cc2)C[C@@H]1C [Example 15g] | 25 to 200 nM | ≥ 70%
CC(=O)N1c2ccc(-c3ccc(C(=O)NCCOCCOCCOCCOCCOCCNC(=O)C4CC(C(C)C)CN(C(=O)/C(C#N)=C/c5ccc(F)cc5)C4)cc3)cc2[C@H](Nc2ccc(Cl)cc2)C[C@@H]1C (stereo partly drawn) [Example 13n] | > 200 nM | 50 to 70%
CC(=O)N1c2ccc(-c3ccc(C(=O)NCCOCCOCCOCCOCCOCCNC(=O)[C@@H]4CN(C(=O)/C(C#N)=C/c5nccs5)C[C@H]4c4cccc(C)c4)cc3)cc2[C@H](Nc2ccc(Cl)cc2)C[C@@H]1C [Example 15aj] | 25 to 200 nM | 50 to 70%
CC(=O)N1c2ccc(-c3ccc(C(=O)NCCOCCOCCOCCOCCOCCNC(=O)C4CC(C)CN(C(=O)/C(C#N)=C/C(C)(C)C)C4)cc3)cc2[C@H](Nc2ccc(Cl)cc2)C[C@@H]1C (stereo partly drawn) [Example 13g] | > 200 nM | 50 to 70%
CC(=O)N1c2ccc(-c3ccc(C(=O)NCCOCCOCCOCCOCCOCCNC(=O)[C@@H]4CN(C(=O)/C(C#N)=C/C(C)(C)C)C[C@H]4C4CCCCC4)cc3)cc2[C@H](Nc2ccc(Cl)cc2)C[C@@H]1C [Example 15q] | 25 to 200 nM | ≥ 70%
CC(=O)N1c2ccc(-c3ccc(C(=O)NCCOCCOCCOCCOCCOCCNC(=O)C4CC(C5CCCCC5)CN(C(=O)/C(C#N)=C/c5nccs5)C4)cc3)cc2[C@H](Nc2ccc(Cl)cc2)C[C@@H]1C (stereo partly drawn) [Example 13p] | < 25 nM | ≥ 70%
CC(=O)N1c2ccc(-c3ccc(C(=O)NCCOCCOCCOCCOCCOCCNC(=O)[C@@H]4CN(C(=O)/C(C#N)=C/c5ccn(C)n5)C[C@H]4C(C)C)cc3)cc2[C@H](Nc2ccc(Cl)cc2)C[C@@H]1C [Example 15h] | 25 to 200 nM | 50 to 70%
CC(=O)N1c2ccc(-c3ccc(C(=O)NCCOCCOCCOCCOCCOCCNC(=O)C4CC(c5cccc(C)c5)CN(C(=O)/C(C#N)=C/c5ccc(F)cc5)C4)cc3)cc2[C@H](Nc2ccc(Cl)cc2)C[C@@H]1C (stereo partly drawn) [Example 13aw] | > 200 nM | < 50%
CC(=O)N1c2ccc(-c3ccc(C(=O)NCCOCCOCCOCCOCCOCCNC(=O)C4CC(C)CN(C(=O)/C(C#N)=C/c5ccc(F)cc5)C4)cc3)cc2[C@H](Nc2ccc(Cl)cc2)C[C@@H]1C (stereo partly drawn) [Example 13i] | > 200 nM | 30 to 50%
CC(=O)N1c2ccc(-c3ccc(C(=O)NCCOCCOCCOCCOCCOCCNC(=O)[C@@H]4CN(C(=O)/C(C#N)=C/c5ccc(F)cc5)C[C@H]4C(C)C)cc3)cc2[C@H](Nc2ccc(Cl)cc2)C[C@@H]1C [Example 15i] | > 200 nM | 50 to 70%
CC(=O)N1c2ccc(-c3ccc(C(=O)NCCOCCOCCOCCOCCOCCNC(=O)[C@@H]4CN(C(=O)/C(C#N)=C/C(C)(C)C)C[C@H]4C)cc3)cc2[C@H](Nc2ccc(Cl)cc2)C[C@@H]1C [Example 15b] | 25 to 200 nM | ≥ 70%
CC(=O)N1c2ccc(-c3ccc(C(=O)NCCOCCOCCOCCOCCOCCNC(=O)C4CC(c5cccc(C)c5)CN(C(=O)/C(C#N)=C/C(C)(C)CN5CCOCC5)C4)cc3)cc2[C@H](Nc2ccc(Cl)cc2)C[C@@H]1C (stereo partly drawn) [Example 13ax] | < 25 nM | ≥ 70%
